{
  "source": "patent US20240124528A1",
  "about": "“ANTAGONIST OF INTERLEUKIN-17B RECEPTOR (IL-17RB) AND USE THEREOF” (Academia Sinica, priority 2020, published 2024)",
  "key": {"[1]": {"test_system": "CFPAC1-GFP/Luc cells", "test": "Orthotopic CFPAC1-GFP/Luc xenograft pancreatic cancer model in NOD-SCID mice", "assay_type": "in vivo, mouse"}, "[2]": {"test_system": "IL-17RB", "test": "Immunoblotting/IP of IL-17B-induced IL-17RB signaling in CFPAC1 cells after peptide pretreatment", "assay_type": "cell-based, human", "conditions": "CFPAC1 cells pretreated with peptides 30 mins, then rIL-17B 30 mins", "text": "FIGS. 7A to 7J include charts showing that disruption of the interaction between IL-17RB and MLK4 by the loop peptide blocks oncogenic progression. (FIG. 7A) Peptides TAT48-57 (Control) (SEQ ID NO: 21) and TAT-IL-17RB403-416 (Loop) (SEQ ID NO: 30) used for the following experiments. (FIG. 7B) Immunoblotting analysis of IL-17RB binding to MLK4 with Loop peptide treatment. 293T cells expressing Flag-MLK4 and HA-IL-17RB were pretreated with the control and loop peptides with different dose (0, 0.1, 1, 10, 50, 100 ng/ml) for 30 mins, and then added rIL-17B for 30 mins. The cell lysates were reciprocally co-immunoprecipitated with anti-Flag and anti-HA and blotted with the indicated antibodies or directly immunoblotted with the indicated antibodies as the input controls. (FIG. 7C to FIG. 7F) CFPAC1cells were pretreated with the peptides for 30 mins and then added rIL-17B for 30 mins. The cell lysates were immunoblotted with the indicated antibodies or immunoprecipitated with anti-IL-17RB or control IgG and blotted with the indicated antibodies (FIG. 7C). CFPAC1 cells were pretreated with TAT48-57 or TAT-IL-17RB403-416 (50 ng/ml) 30 mins and then added rIL-17B for two hrs. CCL20 and TFF/mRNA expression of these cells were measured by RT-qPCR (n=3) (FIG. 7D), the same cells were for invasion assay (n=4) (FIG. 7E) and SACF assay (n=4) (FIG. 7F). (FIG. 7G) The scheme of the treatment of transgenic pancreatic cancer EKP mice (LSL-Kras^+/G12D; p53^+/−; Ela-Cre^ERT; plus cerulein) with the Loop peptides. (FIG. 7H) IHC images of pancreases stained with anti-P-Y447 antibody. Scale bars: 50 μm. The pancreas tissues were from EKP mice after treated with the control or loop peptides at Day 42. The Kras^+/+ mice (Kras^+/+; p53^+/−; Ela-Cre^ERT; plus cerulein) were used as the non-cancerous control. Boxes indicate the enlarged areas. (FIG. 7I) The experimental EKP mice (n=7 for each group) were euthanized at Day 56, and the metastatic tumor nodules in the lungs were counted. (FIG. 7J) Kaplan-Meier survival curve plot of the lifespans of the experimental EKP mice (n=7 for each group). […]"}, "[3]": {"test_system": "transgenic pancreatic cancer EKP mice", "test": "Spontaneous pancreatic cancer model, EKP mice plus cerulein", "assay_type": "in vivo, mouse", "conditions": "for recruitment of MDSC and M2 macrophage: pancreatic tissues, flow cytometry", "text": "FIGS. 7A to 7J include charts showing that disruption of the interaction between IL-17RB and MLK4 by the loop peptide blocks oncogenic progression. (FIG. 7A) Peptides TAT48-57 (Control) (SEQ ID NO: 21) and TAT-IL-17RB403-416 (Loop) (SEQ ID NO: 30) used for the following experiments. (FIG. 7B) Immunoblotting analysis of IL-17RB binding to MLK4 with Loop peptide treatment. 293T cells expressing Flag-MLK4 and HA-IL-17RB were pretreated with the control and loop peptides with different dose (0, 0.1, 1, 10, 50, 100 ng/ml) for 30 mins, and then added rIL-17B for 30 mins. The cell lysates were reciprocally co-immunoprecipitated with anti-Flag and anti-HA and blotted with the indicated antibodies or directly immunoblotted with the indicated antibodies as the input controls. (FIG. 7C to FIG. 7F) CFPAC1cells were pretreated with the peptides for 30 mins and then added rIL-17B for 30 mins. The cell lysates were immunoblotted with the indicated antibodies or immunoprecipitated with anti-IL-17RB or control IgG and blotted with the indicated antibodies (FIG. 7C). CFPAC1 cells were pretreated with TAT48-57 or TAT-IL-17RB403-416 (50 ng/ml) 30 mins and then added rIL-17B for two hrs. CCL20 and TFF/mRNA expression of these cells were measured by RT-qPCR (n=3) (FIG. 7D), the same cells were for invasion assay (n=4) (FIG. 7E) and SACF assay (n=4) (FIG. 7F). (FIG. 7G) The scheme of the treatment of transgenic pancreatic cancer EKP mice (LSL-Kras^+/G12D; p53^+/−; Ela-Cre^ERT; plus cerulein) with the Loop peptides. (FIG. 7H) IHC images of pancreases stained with anti-P-Y447 antibody. Scale bars: 50 μm. The pancreas tissues were from EKP mice after treated with the control or loop peptides at Day 42. The Kras^+/+ mice (Kras^+/+; p53^+/−; Ela-Cre^ERT; plus cerulein) were used as the non-cancerous control. Boxes indicate the enlarged areas. (FIG. 7I) The experimental EKP mice (n=7 for each group) were euthanized at Day 56, and the metastatic tumor nodules in the lungs were counted. (FIG. 7J) Kaplan-Meier survival curve plot of the lifespans of the experimental EKP mice (n=7 for each group). Log-rank test was used.\nFIGS. 20A to 20D include charts showing that treatment of TAT-IL-17RB403-416 peptide reduces the recruitment of MDSC and M2 macrophage. (FIG. 20A) Pancreatic tissues of EKP mice (LSL-Kras+/G12D; p53+/−; Ela-Cre^ERT; plus cerulein) (n=7 for each group) treated with TAT-IL-17RB403-416 (Loop) peptides were examined the tumor-immune modulating capacity by flow cytometry with specific cell surface markers as indicated. […] Data are mean±s.d. *P<0.05, **P<0.01 by two-tailed Student's t-test.\nFormalin-fixed paraffin-embedded primary tumor tissue sections were used for IHC. Heat-induced antigen retrieval was performed using 0.1M citrate buffer, pH 6.0 and autoclaved for 20 mins. Endogenous peroxidase was eliminated with 3% H2O2. Slides were stained with an in-house-generated anti-IL-17RB antibody (A81, 1:2000) and anti-P-Y447 (1:500), respectively in PBS/10% FBS overnight at 4° C. After washing, slides were incubated with anti-rabbit/mouse HRP polymer before visualization with liquid diaminobenzidine tetrahydrochloride plus substrate DAB chromogen from Dako REAL EnVision (Carpinteria, CA). All slides were counterstained with hematoxylin.\nTumors were excised, weighed and measured. Approximately half of each dissected tumor was fixed in formalin for histopathologic analysis. The remaining tumor sections were placed in PBS with 1% (v/v) FBS and mechanically minced. […]"}, "[4]": {"conditions": "NOD-SCID mice, peptide 160 μg/100 μl PBS i.p. twice per week"}},
  "data": [
    {"sequence": "RKKRRQRRRVCDGTCGKSEGSPS (IL-17RB inhibitory peptide, fusion protein) [loop peptide]", "values": [
      {"measurement": "distant metastases of the pancreatic tumors to liver and lung (IVIS)", "setting": "[1]; NOD-SCID mice euthanized at Day 34", "value": "significantly suppressed"},
      {"measurement": "expression of phospho-IL-17RB in the pancreatic tumors (IHC)", "setting": "[1]; [4]", "value": "inhibited"},
      {"measurement": "lifespan (Kaplan-Meier survival analysis)", "setting": "[1]; [4]", "value": "prolonged"},
      {"measurement": "tumor growth (IVIS bioluminescence)", "setting": "[1]; [4]", "value": "significantly impeded"},
      {"measurement": "pancreatic tumor progression", "setting": "[1]; orthotopic xenograft, NOD-SCID mice", "value": "suppresses"},
      {"measurement": "ERK1/2 phosphorylation induced by IL-17B", "setting": "[2]", "value": "abolished"},
      {"measurement": "tyrosine phosphorylation of IL-17RB induced by IL-17B", "setting": "[2]", "value": "abolished"},
      {"measurement": "ubiquitination of IL-17RB induced by IL-17B", "setting": "[2]", "value": "abolished"},
      {"measurement": "lung metastasis nodule formation", "setting": "[3]; EKP mice euthanized at day 56", "value": "suppressed"},
      {"measurement": "expression of P-Y447 IL-17RB in pancreatic tissues (IHC)", "setting": "[3]; EKP mice, Day 42", "value": "diminished"},
      {"measurement": "recruitment of MDSC and M2 macrophage", "setting": "[3]; EKP mice", "value": "reduced"},
      {"measurement": "recruitment of MDSC and M2 macrophage", "setting": "[3]; EKP mice, listed as TAT-IL-17RB403-416", "value": "reduces"},
      {"measurement": "lifespan (Kaplan-Meier survival)", "setting": "[3]; EKP mice, second treatment protocol", "value": "significantly prolonged"}
    ]}
  ]
}
